Assay results taken from article PMC7217481, “Amino acids serve as an important energy source for adult flukes of Clonorchis sinensis” (PLoS Neglected Tropical Diseases, 2020).

Molecular target: T1, rCsFBPase (Clonorchis sinensis, UniProt G7YVB4)
T1 construct: gene CLF_111764; GenBank id is printed for the qPCR primers and is a genome scaffold
T1 sequence (G7YVB4 1-346): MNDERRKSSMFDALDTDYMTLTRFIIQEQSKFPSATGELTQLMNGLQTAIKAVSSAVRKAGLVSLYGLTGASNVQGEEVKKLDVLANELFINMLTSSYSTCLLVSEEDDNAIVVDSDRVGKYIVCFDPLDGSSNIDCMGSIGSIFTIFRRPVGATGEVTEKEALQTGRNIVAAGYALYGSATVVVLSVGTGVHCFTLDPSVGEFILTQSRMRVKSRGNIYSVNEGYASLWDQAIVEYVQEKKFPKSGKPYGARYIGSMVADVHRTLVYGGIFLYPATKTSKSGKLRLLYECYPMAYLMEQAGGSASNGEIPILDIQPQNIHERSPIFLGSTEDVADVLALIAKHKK
Experiment: coupled G6PDH / phosphoglucose isomerase assay, NADP+ reduction at […] nm
Type: biochemical

Nc1ncnc2c1ncn2[C@@H]1O[C@H](COP(=O)(O)O)[C@@H](O)[C@H]1O [AMP]
IC50: 262 µM

CC(C)Cc1sc(N)nc1-c1ccc(P(=O)(O)O)o1 [MB05032, [5-[2-amino-5-(2-methylpropyl)-4-thiazolyl]-2-furanyl] phosphonic acid]
IC50: 4.9 µM
